# Values quoted from earlier work in patent publication US20090317483A1, “Bicomponent Bioadhesive for Biomedical Use” (INSTITUTO OFTALMOLOGICO DE ALICANTE, S.L., priority 2004, published 2009).
# Details: in vivo
smiles,measurement,value
C=C(C#N)C(=O)OCCCC [butyl cyanoacrylate],closure of corneal perforations,effective
